Laboratory results: publication PMC9609356, “Novel O-Methylglucoside Derivatives of Flavanone in Interaction with Model Membrane and Transferrin” (Membranes, 2022)
Read-outs that look alike come from different tables or passages of the source. Each block holds one compound with its values, some of them ahead of it.

Legend:
Assay in all cases: intrinsic tryptophan fluorescence quenching titration (static quenching; Ka, n = […])
Type in all cases: binding
Settings in all cases: read-out: Ka (M^-1) × 10^4 (converted)
[1] = molecular target: T1, human holo-transferrin (HTF) (Homo sapiens, UniProt P02787)
T1 construct: gene TF
T1 sequence (P02787 20-698): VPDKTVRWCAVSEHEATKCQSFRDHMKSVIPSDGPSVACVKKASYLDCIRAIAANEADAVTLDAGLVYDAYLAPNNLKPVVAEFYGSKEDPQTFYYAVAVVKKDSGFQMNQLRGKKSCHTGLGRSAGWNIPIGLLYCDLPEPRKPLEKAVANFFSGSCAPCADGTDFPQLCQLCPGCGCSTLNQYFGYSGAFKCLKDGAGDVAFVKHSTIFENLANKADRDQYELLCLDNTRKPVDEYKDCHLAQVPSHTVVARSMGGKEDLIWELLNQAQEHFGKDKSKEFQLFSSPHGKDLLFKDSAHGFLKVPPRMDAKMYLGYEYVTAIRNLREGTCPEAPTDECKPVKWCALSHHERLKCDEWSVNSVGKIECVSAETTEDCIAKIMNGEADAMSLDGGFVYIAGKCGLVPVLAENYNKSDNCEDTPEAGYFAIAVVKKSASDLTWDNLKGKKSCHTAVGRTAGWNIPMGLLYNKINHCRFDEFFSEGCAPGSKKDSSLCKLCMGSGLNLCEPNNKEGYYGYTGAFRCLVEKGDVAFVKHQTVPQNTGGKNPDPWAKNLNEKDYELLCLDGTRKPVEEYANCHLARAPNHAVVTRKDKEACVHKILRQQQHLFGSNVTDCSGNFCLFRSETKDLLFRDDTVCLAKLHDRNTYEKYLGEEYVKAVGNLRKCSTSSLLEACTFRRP

[2] = molecular target: T1, human holo-transferrin (HTF); remark: listed apart in the source
[3] = molecular target: T1, human holo-transferrin (HTF); remark: listed apart in the source

- Kd [1]: 89.3 µM
Compound: CO[C@H]1[C@H](O)[C@@H](O)[C@H](Oc2cc(C3CC(=O)c4cc(C)ccc4O3)ccc2O)O[C@@H]1CO (stereo partly drawn) [MFA, 4′-hydroxy-6-methylflavanone 3′-O-β-D-(4′’-O-methyl)-glucopyranoside]

- Kd [2]: 68 µM
Compound: CO[C@H]1[C@H](O)[C@@H](O)[C@H](Oc2cc(C3CC(=O)c4cc(CO)ccc4O3)ccc2O)O[C@@H]1CO (stereo partly drawn) [MFB, 4′-hydroxy-6-hydroxymethylflavanone 3′-O-β-D-(4′’-O-methyl)-glucopyranoside]

- Kd [3]: 35.8 µM
Compound: CO[C@H]1[C@H](O)[C@@H](O)[C@H](OCc2ccc3c(c2)C(=O)CC(c2ccc(O)cc2)O3)O[C@@H]1CO (stereo partly drawn) [MFC, 4′-hydroxyflavanone 6-methylene-O-β-D-(4′’-O-methyl)-glucopyranoside]
